Assay results from patent US20050215551A1, “1-[2H-1-benzopyran-2-one-8-yl]- piperazine derivatives for the treatment of movement disorders” (SOLVAY PHARMACEUTICALS B.V., priority 2004, published 2005).

Legend:
sigma-SG1 = sigma-SG1 (Cavia porcellus, UniProt Q60492); assay: Receptor binding sigma-SG1; settings: radioligand [3H]-pentazocone; guinea pig; read-out: Ki(nM) Compound 1
Protocol: (§1) Receptor binding data were obtained by CEREP (128, rue Danton, 92500 Rueil-Malmaison, France) or at Solvay Pharmaceuticals B.V., using well documented standard procedures. Affinity for 5-HT1A receptors for instance, was determined by testing the ability of the compounds of the invention to displace [^3H]-2-(di-n-propylamino)-8-hydroxytetralin ([^3H]-8-OH-DPAT) from its specific binding sites in rat frontal cortex homogenates. This test is based on the method described by Gozlan et al. (Nature, 305, (1983), pages 140-142).
(§2) The binding data collected in the table below were either obtained by CEREP (128, rue Danton, 92500 Rueil-Malmaison, France) or at Solvay Pharmaceuticals B.V., using well documented standard procedures.

CRF = CRF (Homo sapiens, UniProt P34998); assay: Receptor binding CRF; settings: radioligand [125I]-oCRF, read-out: Ki(nM) Compound 1
Protocol: as §1, §2

β3-adrenergic = β3-adrenergic (Homo sapiens, UniProt P13945); assay: Receptor binding β3-adrenergic; settings: radioligand [125I]-iodocyanopindolol, read-out: Ki(nM) Compound 1
Protocol: as §1, §2

Prostaglandin-H2 = Prostaglandin-H2 (Homo sapiens, UniProt P21731); assay: Receptor binding Prostaglandin-H2; settings: radioligand [3H]-SQ 29548, read-out: Ki(nM) Compound 1
Protocol: as §1, §2

DBA/2 mice = assay: Interaction studies in DBA/2 mice: Compound 1 + vehicle, sumatriptan or SB 258741 (audiogenic seizures); type: in vivo; settings: for Percentage of animal response, Clonic seizures / Percentage of animal response, Tonic extension: 30 min
Protocol: The experiments are performed according to the method previously described by De Sarro et al. (1984), Eur. J. Pharmacol., 104, 55-60. Compounds of the invention or vehicle (controls) are given intraperitoneally (i.p.) and orally (p.o.) as freshly sonicated solutions in methylcellulose 1%. For the i.p. treatment compounds of the invention are given at doses of 0.1, 0.3, 3, 10, 15, 20 and 30 mg/kg; pretreatment time at 30 and 60 min., For oral treatment, all animals are pretreated either at 30 or 60 min using the compounds of the invention at doses of 0.1, 0.3, 3, 6 and 10 mg/kg p.o. At least 10 mice per dose are used. After pretreatment time, each mouse is placed under a hemispheric perspex dome (58 cm in diameter) and 1 min is allowed for habituation and assessment of locomotor activity. Animals are challenged with a 12-16 kHz sinusoidal tone at 109 dB. Seizure response is assessed by two independent observers. The sound evoked behaviour is coded using the following scale: 0=no response, 1=wild running, 2=clonus, 3=tonic flexor and/or extensor; 4=respiratory arrest, on the basis of the concordant opinion of the observers. […] The maximum response is recorded for each animal. Rectal temperature is recorded immediately prior to auditory testing using an Elektrolaboratoriet thermometer type T.E.3. Behavioral changes are observed during the period between drug administration and auditory testing. In these experiments separate vehicle-treated and drug-treated groups are used at each pretreatment time (15 min-60 min). Percentage of mice showing wild running, clonic or tonic phase and the duration of anticonvulsant activity are compared to control group and statistically analyzed.

5-HT5 = 5-HT5 (Homo sapiens, UniProt P47898); assay: Receptor binding 5-HT5; settings: radioligand [3H]-LSD, read-out: Ki(nM) Compound 1
Protocol: as §1, §2

Neuropeptide Y1 = Neuropeptide Y1 (Homo sapiens, UniProt P25929); assay: Receptor binding Neuropeptide Y1; settings: radioligand [125I]-PYY, read-out: Ki(nM) Compound 1
Protocol: as §1, §2

5-HT2A = 5-HT2A (Homo sapiens, UniProt P28223); assay: Receptor binding 5-HT2A; settings: radioligand [3H]-ketanserin, read-out: Ki(nM) Compound 1
Protocol: as §1, §2

5-HT2C = 5-HT2C (Homo sapiens, UniProt P28335); assay: Receptor binding 5-HT2C; settings: radioligand [125I]-DOI, read-out: Ki(nM) Compound 1
Protocol: as §1, §2

Neurokinin-NK1 = Neurokinin-NK1 (Homo sapiens, UniProt P25103); assay: Receptor binding Neurokinin-NK1; settings: radioligand [3H]-substance P, read-out: Ki(nM) Compound 1
Protocol: as §1, §2

Vasopressine-V1A = Vasopressine-V1A (Homo sapiens, UniProt P37288); assay: Receptor binding Vasopressine-V1A; settings: radioligand [3H]-vasopressine, read-out: Ki(nM) Compound 1
Protocol: as §1, §2

Dopaminereuptake = Dopaminereuptake (Homo sapiens, UniProt Q01959); assay: Binding Dopamine reuptake; settings: radioligand [3H]-GBR 12935, read-out: Ki(nM) Compound 1
Protocol: as §1, §2

Neurokinin-NK3 = Neurokinin-NK3 (Homo sapiens, UniProt P29371); assay: Receptor binding Neurokinin-NK3; settings: radioligand [3H]-SR 142801, read-out: Ki(nM) Compound 1
Protocol: as §1, §2

5-HT7 = 5-HT7 (Homo sapiens, UniProt P34969); assay: Receptor binding 5-HT7; settings: radioligand [3H]-LSD, read-out: Ki(nM) Compound 1
Protocol: as §1, §2

Muscarine-M4 = Muscarine-M4 (Homo sapiens, UniProt P08173); assay: Receptor binding Muscarine-M4; settings: radioligand [3H]-4-DAMP, read-out: Ki(nM) Compound 1
Protocol: as §1, §2

5-HT1B = 5-HT1B (Rattus norvegicus, UniProt P28564); assay: Receptor binding 5-HT1B; settings: radioligand [125I]-cyanopindolol, read-out: Ki(nM) Compound 1
Protocol: as §1, §2

Endothelin-ETA = Endothelin-ETA (Homo sapiens, UniProt P25101); assay: Receptor binding Endothelin-ETA; settings: radioligand [125I]-endothelin-1, read-out: Ki(nM) Compound 1
Protocol: as §1, §2

Histamine-H3 = Histamine-H3 (Rattus norvegicus, UniProt Q9QYN8); assay: Receptor binding Histamine-H3; settings: radioligand [3H]-α-methylhistamine, read-out: Ki(nM) Compound 1
Protocol: as §1, §2

Muscarine-M3 = Muscarine-M3 (Homo sapiens, UniProt P20309); assay: Receptor binding Muscarine-M3; settings: radioligand [3H]-4-DAMP, read-out: Ki(nM) Compound 1
Protocol: as §1, §2

Adenosine-A3 = Adenosine-A3 (Homo sapiens, UniProt P0DMS8); assay: Receptor binding Adenosine-A3; settings: radioligand [3H]-AB-MECA, read-out: Ki(nM) Compound 1
Protocol: as §1, §2

[1] = dose of Compound 1 0.3 mg/kg i.p.
[2] = dose of Compound 1 3 mg/kg i.p.
[3] = dose of Compound 1 10 mg/kg i.p.
[4] = dose of Compound 1 15 mg/kg i.p.
[5] = dose of Compound 1 20 mg/kg i.p.

5-HT2C, sequence (P28335 33-458): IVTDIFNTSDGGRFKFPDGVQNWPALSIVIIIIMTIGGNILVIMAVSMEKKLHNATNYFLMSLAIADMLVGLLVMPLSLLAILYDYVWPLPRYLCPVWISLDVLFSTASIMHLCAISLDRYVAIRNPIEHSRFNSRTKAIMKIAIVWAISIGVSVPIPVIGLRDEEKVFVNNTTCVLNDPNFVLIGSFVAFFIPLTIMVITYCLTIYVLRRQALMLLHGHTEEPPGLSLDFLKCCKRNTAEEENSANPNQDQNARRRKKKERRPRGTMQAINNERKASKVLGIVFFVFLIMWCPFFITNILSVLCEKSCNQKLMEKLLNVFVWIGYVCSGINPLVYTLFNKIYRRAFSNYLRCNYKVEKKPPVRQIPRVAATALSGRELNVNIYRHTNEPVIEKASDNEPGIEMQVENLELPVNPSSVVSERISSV
Adenosine-A3, sequence (P0DMS8 whole entry): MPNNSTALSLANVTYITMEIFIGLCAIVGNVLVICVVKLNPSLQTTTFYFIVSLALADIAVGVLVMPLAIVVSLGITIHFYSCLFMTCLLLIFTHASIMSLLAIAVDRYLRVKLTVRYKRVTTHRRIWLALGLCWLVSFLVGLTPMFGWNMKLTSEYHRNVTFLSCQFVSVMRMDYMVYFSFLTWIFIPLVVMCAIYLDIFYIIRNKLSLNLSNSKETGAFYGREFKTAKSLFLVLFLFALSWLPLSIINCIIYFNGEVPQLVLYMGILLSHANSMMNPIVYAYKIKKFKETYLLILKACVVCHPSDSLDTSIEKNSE
Muscarine-M3, sequence (P20309 whole entry): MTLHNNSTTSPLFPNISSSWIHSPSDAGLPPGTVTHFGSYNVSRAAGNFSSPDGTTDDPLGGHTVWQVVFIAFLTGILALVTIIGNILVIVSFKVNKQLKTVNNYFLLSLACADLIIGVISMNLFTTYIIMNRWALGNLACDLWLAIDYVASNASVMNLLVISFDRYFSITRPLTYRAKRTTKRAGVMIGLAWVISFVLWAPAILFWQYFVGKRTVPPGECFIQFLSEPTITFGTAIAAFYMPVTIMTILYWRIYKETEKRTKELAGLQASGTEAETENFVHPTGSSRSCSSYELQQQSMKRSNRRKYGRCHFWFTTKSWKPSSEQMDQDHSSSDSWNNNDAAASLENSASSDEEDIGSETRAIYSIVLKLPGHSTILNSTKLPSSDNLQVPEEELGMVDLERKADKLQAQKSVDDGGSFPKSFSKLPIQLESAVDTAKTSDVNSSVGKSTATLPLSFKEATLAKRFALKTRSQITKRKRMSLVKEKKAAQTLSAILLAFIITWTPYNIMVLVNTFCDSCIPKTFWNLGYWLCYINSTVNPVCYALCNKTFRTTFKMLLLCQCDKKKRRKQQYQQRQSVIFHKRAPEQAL
Neuropeptide Y1, sequence (P25929 whole entry): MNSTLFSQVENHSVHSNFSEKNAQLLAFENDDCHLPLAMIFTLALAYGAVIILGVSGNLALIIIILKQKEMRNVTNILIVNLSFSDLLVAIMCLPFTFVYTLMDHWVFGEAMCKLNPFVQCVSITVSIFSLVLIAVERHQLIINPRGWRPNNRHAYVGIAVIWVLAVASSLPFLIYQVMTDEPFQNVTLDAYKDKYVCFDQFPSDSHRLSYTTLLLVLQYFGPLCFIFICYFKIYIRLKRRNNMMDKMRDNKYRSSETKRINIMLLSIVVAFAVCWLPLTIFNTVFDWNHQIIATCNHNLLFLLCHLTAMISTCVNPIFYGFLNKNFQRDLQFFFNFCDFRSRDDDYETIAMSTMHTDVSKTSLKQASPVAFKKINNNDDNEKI
Neurokinin-NK3, sequence (P29371 whole entry): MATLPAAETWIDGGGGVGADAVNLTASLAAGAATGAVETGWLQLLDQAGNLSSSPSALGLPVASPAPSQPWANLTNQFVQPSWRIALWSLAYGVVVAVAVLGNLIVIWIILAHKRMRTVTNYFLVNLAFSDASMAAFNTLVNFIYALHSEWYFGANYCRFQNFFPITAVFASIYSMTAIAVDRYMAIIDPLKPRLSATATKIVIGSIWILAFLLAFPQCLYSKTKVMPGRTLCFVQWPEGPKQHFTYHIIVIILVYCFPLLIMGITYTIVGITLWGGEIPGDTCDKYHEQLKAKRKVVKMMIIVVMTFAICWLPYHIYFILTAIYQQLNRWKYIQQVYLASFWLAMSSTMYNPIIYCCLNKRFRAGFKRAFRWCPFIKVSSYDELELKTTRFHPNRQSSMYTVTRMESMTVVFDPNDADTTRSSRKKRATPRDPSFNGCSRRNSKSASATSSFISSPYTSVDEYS
5-HT2A, sequence (P28223 whole entry): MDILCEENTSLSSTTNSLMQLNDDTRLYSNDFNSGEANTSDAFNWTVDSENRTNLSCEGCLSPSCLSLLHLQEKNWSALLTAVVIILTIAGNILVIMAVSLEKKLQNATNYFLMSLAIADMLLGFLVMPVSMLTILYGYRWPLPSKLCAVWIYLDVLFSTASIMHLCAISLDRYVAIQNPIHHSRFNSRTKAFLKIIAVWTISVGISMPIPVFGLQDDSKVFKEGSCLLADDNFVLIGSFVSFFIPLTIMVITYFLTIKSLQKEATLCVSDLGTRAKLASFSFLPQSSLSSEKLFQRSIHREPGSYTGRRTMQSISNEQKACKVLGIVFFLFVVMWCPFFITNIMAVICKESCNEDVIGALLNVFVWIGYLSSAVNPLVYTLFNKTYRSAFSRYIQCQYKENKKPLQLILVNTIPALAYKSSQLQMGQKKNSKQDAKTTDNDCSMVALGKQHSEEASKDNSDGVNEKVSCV
Dopaminereuptake, sequence (Q01959 whole entry): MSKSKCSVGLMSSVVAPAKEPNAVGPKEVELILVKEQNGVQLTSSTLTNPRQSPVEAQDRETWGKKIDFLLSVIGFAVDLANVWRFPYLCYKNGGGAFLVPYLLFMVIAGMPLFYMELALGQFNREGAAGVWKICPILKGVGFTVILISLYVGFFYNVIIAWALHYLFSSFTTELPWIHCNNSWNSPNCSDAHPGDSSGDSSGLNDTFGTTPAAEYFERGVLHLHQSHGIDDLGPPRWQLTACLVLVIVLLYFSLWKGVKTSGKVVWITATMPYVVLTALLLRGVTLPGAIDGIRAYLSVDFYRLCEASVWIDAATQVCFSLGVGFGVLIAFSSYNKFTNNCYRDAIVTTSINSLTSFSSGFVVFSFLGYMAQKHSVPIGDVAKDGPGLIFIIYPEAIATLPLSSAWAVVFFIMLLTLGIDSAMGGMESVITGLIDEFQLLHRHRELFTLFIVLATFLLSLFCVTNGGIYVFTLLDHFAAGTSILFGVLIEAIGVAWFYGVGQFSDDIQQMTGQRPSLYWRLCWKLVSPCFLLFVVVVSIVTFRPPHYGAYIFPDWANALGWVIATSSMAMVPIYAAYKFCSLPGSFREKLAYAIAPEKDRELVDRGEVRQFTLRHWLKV
β3-adrenergic, sequence (P13945 whole entry): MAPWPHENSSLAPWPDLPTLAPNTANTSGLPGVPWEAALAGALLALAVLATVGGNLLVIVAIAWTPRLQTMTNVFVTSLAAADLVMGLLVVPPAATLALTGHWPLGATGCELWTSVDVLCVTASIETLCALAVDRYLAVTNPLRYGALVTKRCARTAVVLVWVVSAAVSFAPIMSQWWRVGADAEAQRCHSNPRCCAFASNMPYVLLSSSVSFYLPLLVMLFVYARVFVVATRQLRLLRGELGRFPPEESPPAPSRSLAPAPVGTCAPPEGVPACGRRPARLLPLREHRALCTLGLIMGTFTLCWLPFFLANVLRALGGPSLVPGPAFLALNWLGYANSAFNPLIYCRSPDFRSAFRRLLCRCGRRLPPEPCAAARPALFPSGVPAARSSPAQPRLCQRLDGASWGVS
sigma-SG1, sequence (Q60492 whole entry): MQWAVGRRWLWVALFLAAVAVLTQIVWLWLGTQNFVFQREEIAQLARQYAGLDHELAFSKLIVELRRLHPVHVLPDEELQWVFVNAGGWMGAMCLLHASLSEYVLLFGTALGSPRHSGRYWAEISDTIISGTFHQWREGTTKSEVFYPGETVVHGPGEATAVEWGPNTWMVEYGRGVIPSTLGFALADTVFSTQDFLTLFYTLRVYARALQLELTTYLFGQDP
Prostaglandin-H2, sequence (P21731 whole entry): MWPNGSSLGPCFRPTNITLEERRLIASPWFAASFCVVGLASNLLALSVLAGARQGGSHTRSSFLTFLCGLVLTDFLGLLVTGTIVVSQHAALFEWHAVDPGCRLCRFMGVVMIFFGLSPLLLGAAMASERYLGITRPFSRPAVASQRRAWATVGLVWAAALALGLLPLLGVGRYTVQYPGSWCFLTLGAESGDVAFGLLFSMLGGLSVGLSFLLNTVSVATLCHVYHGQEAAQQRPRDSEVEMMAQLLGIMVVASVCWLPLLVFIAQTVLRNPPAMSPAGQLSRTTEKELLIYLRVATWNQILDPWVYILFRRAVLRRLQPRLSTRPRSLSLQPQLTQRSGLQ
Muscarine-M4, sequence (P08173 whole entry): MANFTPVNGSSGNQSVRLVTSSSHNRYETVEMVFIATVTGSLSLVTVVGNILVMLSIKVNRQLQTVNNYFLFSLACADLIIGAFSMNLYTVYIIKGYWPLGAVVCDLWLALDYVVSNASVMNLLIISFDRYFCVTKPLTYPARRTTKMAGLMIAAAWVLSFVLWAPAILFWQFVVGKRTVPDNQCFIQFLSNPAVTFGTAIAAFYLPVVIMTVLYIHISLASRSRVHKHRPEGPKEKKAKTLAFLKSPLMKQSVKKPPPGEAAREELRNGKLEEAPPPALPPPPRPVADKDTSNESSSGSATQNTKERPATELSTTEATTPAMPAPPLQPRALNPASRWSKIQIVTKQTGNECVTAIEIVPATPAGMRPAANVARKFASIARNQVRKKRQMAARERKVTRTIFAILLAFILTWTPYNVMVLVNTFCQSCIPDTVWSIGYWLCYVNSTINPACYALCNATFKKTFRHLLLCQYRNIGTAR

## Nc1cc2cccc(N3CCNCC3)c2oc1=O [Compound 1, 3-amino-8-(1-piperazinyl)-2H-1-benzopyran-2-one]
sigma-SG1
  Ki: > 1000 nM
CRF
  Ki: > 10000 nM
β3-adrenergic
  Ki: > 1000 nM
Prostaglandin-H2
  Ki: > 1000 nM
DBA/2 mice; [1]
  Percentage of animal response, Clonic seizures: 90%
  Percentage of animal response, Tonic extension: 60%
DBA/2 mice; [2]
  Percentage of animal response, Clonic seizures: 80%
  Percentage of animal response, Tonic extension: 40%
DBA/2 mice; [3]
  Percentage of animal response, Clonic seizures: 40%
  Percentage of animal response, Tonic extension: 0%
DBA/2 mice; [4]
  Percentage of animal response, Clonic seizures: 20%
  Percentage of animal response, Tonic extension: 0%
DBA/2 mice; [5]
  Percentage of animal response, Clonic seizures: 10%
  Percentage of animal response, Tonic extension: 0%
DBA/2 mice; i.p., all dosages tested
  behavioural changes: At none of the dosages tested
5-HT5
  Ki: 100 nM
Neuropeptide Y1
  Ki: > 1000 nM
5-HT2A
  Ki: 630 nM
5-HT2C
  Ki: > 1000 nM
Neurokinin-NK1
  Ki: > 1000 nM
Vasopressine-V1A
  Ki: > 1000 nM
Dopaminereuptake
  Ki: > 1000 nM
Neurokinin-NK3
  Ki: > 1000 nM
5-HT7
  Ki: 3.2 nM
Muscarine-M4
  Ki: > 1000 nM
5-HT1B
  Ki: 2 nM
Endothelin-ETA
  Ki: > 1000 nM
Histamine-H3
  Ki: > 10000 nM
Muscarine-M3
  Ki: > 1000 nM
Adenosine-A3
  Ki: > 1000 nM
